The record followed here is ChEMBL document CHEMBL5532707, “SETDB1 as a cancer target: challenges and perspectives in drug design” (RSC Med Chem, 2024).

The nature of one assay: cells. The conditions noted are these: Homo sapiens, MDA-MB-231, 48 h.
In the next assay the test system is MDA-MB-231. The assay can be described thus: Antiproliferative activity against human MDA-MB-231 cells by MTT assay. Type of assay: functional, cell-based. For orientation: Formazan colour is commonly taken as a measure of viable cells.

Structures are written as SMILES.

Description for cells: Downregulation of H3K9me2 level in human MDA-MB-231 cells measured after 48 hrs by Western blot analysis

By IC50 is commonly meant the concentration needed to halve the response being measured. `COc1cc2c(NC3CCN(C(C)C)CC3)nc(C3CCCCC3)nc2cc1OCCCN1CCCC1`: the IC50 in the assay “cells” amounted to 81 nM. What is called EC50 is the midpoint of the concentration-response curve. A lower EC50 goes with an effect from little substance. Take `COc1cc2nc(N3CCCN(C)CC3)nc(NC3CCN(Cc4ccccc4)CC3)c2cc1OC`: half-maximal inhibition in “cells” (IC50) was put at 500 nM. Also, the midpoint of the response in the assay with MDA-MB-231, the EC50, lay at 2700 nM.
